# Source: article PMC7415810, “A novel nucleolin-binding peptide for Cancer Theranostics” (Theranostics, 2020)
# Experiments:
# [1] = In vitro stability test in human serum; settings: 100 μM stock diluted 10-fold in 100% human serum, 37 °C, 0-24 h; analytical HPLC; triplicate
# Method: Stock solutions of peptides (100 μM) were diluted by a factor of 10 with pre-warmed 100% human serum (Sigma-Aldrich, St. Louis, MO, USA) and incubated at 37 °C for 0, 3, 6, 9, and 24 h. Controls with peptides in PBS were included. The action was stopped by denaturing the serum proteins with urea at a final concentration of 3 M at 4 °C for 10 min, followed by precipitation of serum proteins with trichloroacetic acid at a final concentration of 7% (v/v) (4 °C, 10 min) and centrifugation (17,000 × g, 10 min). The supernatant of each sample was recovered and run on an analytical column using a linear gradient of 5-65% solvent B for 30 min at a flow rate of 1 ml/min, where solvent A was water containing 0.1% TFA and solvent B was acetonitrile containing 0.1% TFA. The percentage of peptide remaining in serum-treated samples was determined by comparing the height of the peptide peak obtained at each time point with that of the peptide peak obtained at the 0 time point. […]
# (§1) bated at 37 °C for 0, 3, 6, 9, and 24 h. The portion of serum-treated peptide remaining was determined by calcu-lating the height of the respective elution peak in analytical-HPLC and comparing it with control without incuba- […]
# Plasma peptide concentrations were quantified by ELISA, and pharmacokinetic profiles were analyzed using Phoenix WinNonlin 8.1 (Pharsight Corporation, Mountain View, CA, USA). […]
# [2] = In vivo stability test (plasma pharmacokinetics after single intravenous injection); settings: mouse
# Method: After 15 min of centrifugation at 5,000 rpm and 4 °C, the plasma was obtained and stored at -80 °C. Plasma peptide concentrations were quantified by ELISA, and pharmacokinetic profiles were analyzed using Phoenix WinNonlin 8.1 (Pharsight Corporation, Mountain View, CA, USA). The area under the plasma concentration-time curve (AUC), distribution half-time (T1/2), maximum plasma concentration (Cmax) and time required to reach maximum plasma concentration (Tmax) values were directly determined from the experimental data. […]
# as §1
# Plasma peptide concentrations were quantified by ELISA, and pharmacokinetic profiles were analyzed using Phoenix WinNonlin 8.1 (Pharsight Corporation, Mountain View, CA, USA). The data are presented as the means ± standard deviation.
# MCF-10A cells = assay: cells; settings: Homo sapiens, MCF-10A, 48 h, read-out: IC50, MCF-10A cells
# Method: (§2) Cancer and normal cells (1 × 10^4 cells/well) were seeded in 96-well plates, incubated for 24 h, and then treated with increasing concentrations of AGM-330, PTX, and AGM-330-PTX for 48 h. Cell viability was assessed by the CellVia WST-1 assay (Young In Frontier) according to the manufacturer's instructions. The numbers of viable cells were measured at a wavelength of 450 nm using a VersaMax ELISA plate reader (Molecular Devices, San Jose, CA, USA).
# (§3) Figure S3. A-C, Cancer and normal cells (1 × 10^4 cells/well) were seeded in 96-well plates. After 24 h of incuba-tion, the cells were treated with an increasing concentration of dimeric or tetrameric AGM-330 for 48 h. The viability of cells grown in 0 % FBS (A), 5 % FBS (B) or 10 % FBS (C) was assessed by a CellVia WST-1 assay (Young In Frontier, Seoul, Korea) according to the manufacturer’s instruction. The numbers of viable cells were measured at a wavelength of 450 nm using an VersaMax ELISA plate reader (Molecular Devices). D, E, Binding specificity of AGM-330. A whole-cell binding assay was performed to determine the cell binding of AGM-330 in 1 % FBS (D) or 5 % FBS (E). Scale bar, 200 μm.
# MDA-MB-231 cells = assay: cells; settings: Homo sapiens, MDA-MB-231, 48 h, read-out: IC50, MDA-MB-231 cells
# Method: as §2, §3
# MDA-MB-231-luc xenograft = assay: Tumorigenesis experiment, MDA-MB-231-luc breast cancer xenograft; settings: tail vein twice a week; for average tumor volume: day 21, n = 5; for final average tumor weight: n = 5
# Method: All animal experiments were performed in accordance with IACUC guidelines (GIST-2019-040). For tumorigenesis experiments, anesthetized 6-week-old female NOD-scid Il2rg^-^/^- mice (NPG^TM, VITALSTAR) were inoculated in the mammary fat pad with 1 × 10^6 MDA-MB-231-luc cells in a 100 μl volume (n = 5 for each group). After tumor cell inoculation, when the tumor volume reached approximately 100 mm^3, the mice were randomly divided into the following five groups: (i) control, (ii) low-dose paclitaxel (2 mg/kg), (iii) high-dose paclitaxel (10 mg/kg), (iv) AGM-330 (16.68 mg/kg, molar equivalent to 2 mg/kg of PTX), and (v) AGM-330-PTX (19.05 mg/kg, molar equivalent to 2 mg/kg of PTX). The tumor size was measured twice a week, and the tumor volume was calculated with the following formula: volume (mm^3) = [length (mm)] × [width (mm)]^2 × 0.5. For the bioluminescent imaging experiment, D-luciferin (150 mg/kg; PerkinElmer) was intraperitoneally injected into each mouse, and an IVIS 100 imaging system (Xenogen, Corporation, Alameda, CA) was used for bioluminescent monitoring. Mice were anesthetized with vaporized isofurane (BK Pharm, Ilsan, Korea) and placed in an imaging chamber. After 10 min, each animal was imaged with an exposure time of 1 min. All bioluminescent image data were obtained using Living Image software (version 4.5.2, PerkinElmer). Photons detected from tumors were converted to average radiance values (photon/sec/cm^2/sr), which are quantitative data obtained from a region of […] (ROI) and include the photons emitted by bioluminescent cells from an assigned rectangular area over the whole body of each mouse.
# A, Cell proliferation inhibition by AGM-330-PTX treatment was determined for 48 h by the WST assay in multiple breast and colorectal cancer cells and in normal cells. B, Schematic representation of the experimental protocol as described in the materials and methods section. Anesthetized 6‑week-old […] NPG mice were inoculated with a 1:1 mix of Matrigel and 1 × 10^6 MDA-MB-231-luc cells into the mammary fat pad. When the volume of primary tumors reached approximately 100 mm^3, tumor-bearing mice were treated with vehicle (PBS), PTX (2 or 10 mg/kg), AGM-330 (16.68 mg/kg, molar equivalent to 2 mg/kg of PTX), or AGM-330-PTX (19.05 mg/kg, molar equivalent to 2 mg/kg of PTX; n = 5/group). C-E, The therapeutic effect of AGM-330-PTX was evaluated in breast cancer xenograft models. C, Primary tumor volume was measured twice a week until the day of sacrifice. The primary tumor volume was calculated by the formula volume (mm^3) = (length (mm)) × (width (mm))^2 × 0.5. D, On the day of sacrifice, all primary tumors were isolated, and (E) the primary tumor weights were evaluated. F-I, Immunohistochemistry (IHC) sections of representative tumors with Ki-67 (F,H) and TUNEL (G,I) staining. Nuclei were stained with DAPI (blue). Scale bar, 50 µm. Bar graphs represent the mean ± SD, and statistical analyses were performed by one-way ANOVA with Dunnett's multiple comparison. *, **, and *** indicate P < 0.05, P < 0.01, and P < 0.001, respectively.
# Following in vitro proliferation analysis on cancer lines, we investigated whether AGM-330-PTX could be a potential therapeutic agent in vivo. We inoculated MDA-MB-231-luc cells into the mammary fat pad of NPG mice. After the […] tumors grew to 100 mm^3, comparative efficacy studies were performed by dividing the animals into five groups (n = 5/group) treated with vehicle (PBS), PTX (2 or 10 mg/kg, respectively), AGM-330 (16.68 mg/kg, molar equivalent to 2 mg/kg of PTX), or AGM-330-PTX (19.05 mg/kg, molar equivalent to 2 mg/kg of PTX) twice a week by tail vein injection (Figure 5B). Tumor growth was monitored by measuring volumes twice a week with a caliber rule over the course of 3 weeks.
# Figure S11. A-E, NPG TM mice bearing MDA-MB-231-luc tumors were treated twice a week for 21 days with […]
# MCF-10A = assay: Whole-cell binding assay on OBOC peptide beads; assay type: cell-based, human; settings: peptide on TentaGel beads incubated with cells at 10^6 cells/ml; repeated 3 times
# Method: (§4) The beads were washed extensively with double-distilled water and phosphate-buffered saline (PBS; Welgene Inc., Korea) before screening. Cancer and normal cells were detached from culture dishes with trypsin/EDTA (Gibco), washed with their corresponding culture medium, resuspended at 10^6 cells/ml, and incubated with OBOC beads in Petri dishes in a humidified CO2 incubator at 37 °C with shaking (60 rpm). Beads bound by cells appeared under a microscope as rosettes in which a central bead was covered by one or more layers of cells. The positive beads were picked with a pipette under an inverted microscope, treated with guanidine-HCL (8 M, 20 min) to remove cells and proteins on the bead surface, and subjected to a second round of screening with normal breast epithelial cells to eliminate false positive binding.
# (§5) Note : Semiquantitative relative binding activity: “++++” very strong binding (>40 cells per bead), “+++” strong binding (30
# (§6) -20 cells per bead), “+ +” moderate binding (20 - 10 cells per bead), “+” weak binding (5-10 cells per bead), “-” no binding. […]
# (§7) Figure S1. A, Steps performed in peptide library synthesis and screening. 1, The split-mix synthesis method was performed to construct the combinatorial OBOC libraries. […]
# (§8) sized. 3, OBOC libraries were incubated with cancer cells in a CO2 incubator. 4, Beads carrying ligands with an affinity for cell surface molecules became covered with cells. 5, The positive beads were picked with a pipette under an inverted microscope. 6, The peptide sequences for positive beads were determined by Edman microse - […]
# (§9) peptide libraries. B, The binding specificities of the peptides against cancer cell and normal cells were deter- […]
# (§10) breast and colorectal cancer cells and normal breast and colorectal cells were re-suspended at 10^6 cells/ml and incubated with beads. All experiments were repeated 3 times. Scale bar, 200 μm.
# MDA-MB-231 = assay: Whole-cell binding assay on OBOC peptide beads; assay type: cell-based, human; settings: peptide on TentaGel beads incubated with cells at 10^6 cells/ml; repeated 3 times
# Method: as §4, §5, §6, §7, §8, §9, §10
# [3] = target: T1, full length recombinant NCL (OriGene) (UniProt P19338 1-710); assay: SPR; Biacore T-200, 25 °C; full length recombinant NCL amine-coupled on CM5 (about 1000 RU); AGM-330 20 nM - 2.5 μM injected at 30 μl/min; HBS-EP (10 mM HEPES pH 7.4, 0.15 M NaCl, 3.4 mM EDTA, 0.05% Triton-X 100); KD = kd/ka; settings: both partners purified
# T1 construct: nucleolin, full length recombinant protein from OriGene; no catalogue number, species or tags are printed; source: bought: OriGene
# T1 sequence (P19338 whole entry): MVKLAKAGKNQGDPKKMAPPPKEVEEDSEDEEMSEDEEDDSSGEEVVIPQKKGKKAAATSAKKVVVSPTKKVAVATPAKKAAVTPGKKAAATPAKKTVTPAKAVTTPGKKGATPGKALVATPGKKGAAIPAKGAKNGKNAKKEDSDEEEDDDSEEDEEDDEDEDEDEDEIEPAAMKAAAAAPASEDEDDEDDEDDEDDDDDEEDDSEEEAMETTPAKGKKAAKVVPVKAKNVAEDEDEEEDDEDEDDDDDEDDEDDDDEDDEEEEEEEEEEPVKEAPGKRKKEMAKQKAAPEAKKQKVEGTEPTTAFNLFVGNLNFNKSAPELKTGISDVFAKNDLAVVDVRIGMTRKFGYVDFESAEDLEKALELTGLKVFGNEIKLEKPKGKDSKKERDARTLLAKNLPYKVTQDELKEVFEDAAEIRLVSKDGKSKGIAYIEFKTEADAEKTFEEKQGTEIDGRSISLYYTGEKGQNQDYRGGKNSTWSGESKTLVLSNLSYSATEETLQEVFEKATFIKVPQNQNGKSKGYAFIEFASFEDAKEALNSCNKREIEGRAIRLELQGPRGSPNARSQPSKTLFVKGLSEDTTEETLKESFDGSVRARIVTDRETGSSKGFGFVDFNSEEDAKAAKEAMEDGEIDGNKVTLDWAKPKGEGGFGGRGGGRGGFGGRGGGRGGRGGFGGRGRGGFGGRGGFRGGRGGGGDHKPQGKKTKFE
Molecule,"Semiquantitative relative binding activity, MCF-10A (MCF-10A)","Semiquantitative relative binding activity, MDA-MB-231 (MDA-MB-231)",also measured
CSCC[C@H](NC(=O)[C@H](C)NC(=O)CNC(=O)[C@H](Cc1c[nH]cn1)NC(=O)[C@@H](N)CCCNC(=N)N)C(=O)N[C@H](C(=O)N[C@@H](Cc1ccc(O)cc1)C(=O)N[C@@H](CC(C)C)C(=O)N[C@@H](CCCCN)C(=O)O)C(C)C [AGM-330m],–,–,degradation after incubation with serum [1]: rapidly degraded; Cmax [2]: 1270 ± 120 ng/mL; Tmax [2]: 10 min
"CC(=O)O[C@H]1C(=O)[C@@]2(C)[C@H]([C@H](OC(=O)c3ccccc3)[C@]3(O)C[C@H](OC(=O)[C@H](O)[C@@H](NC(=O)c4ccccc4)c4ccccc4)C(C)=C1C3(C)C)[C@]1(OC(C)=O)CO[C@@H]1C[C@@H]2O [PTX, paclitaxel, reference compound]",–,–,IC50 (MCF-10A cells): 450 nM; IC50 (MDA-MB-231 cells): 370 nM; average tumor volume (MDA-MB-231-luc xenograft; 2 mg/kg): 1671 ± 199 mm^3; final average tumor weight (MDA-MB-231-luc xenograft; 2 mg/kg): 2.1 ± 0.4 g; average tumor volume (MDA-MB-231-luc xenograft; 10 mg/kg): 988 ± 78 mm^3; final average tumor weight (MDA-MB-231-luc xenograft; 10 mg/kg): 1.5 ± 0.1 g
ADHRHRRSG [AGM-331],++ (moderate binding (20 - 10 cells per bead)),++++ (very strong binding (>40 cells per bead)),–
AVARARRRR [AGM-332],++ (moderate binding (20 - 10 cells per bead)),+++ (strong binding (30 -20 cells per bead)),–
"FGRLKKPLK [AGM-335, 9mer peptide hit from OBOC screening]",+ (weak binding (5-10 cells per bead)),+ (weak binding (5-10 cells per bead)),–
"KRRRKAPTD [AGM-337, 9mer peptide hit from OBOC screening]",+ (weak binding (5-10 cells per bead)),+ (weak binding (5-10 cells per bead)),–
"KRRRRERAG [AGM-336, 9mer peptide hit from OBOC screening]",+++ (strong binding (30 -20 cells per bead)),+++ (strong binding (30 -20 cells per bead)),–
"RFLKNKKAR [AGM-333, 9mer peptide hit from OBOC screening]",+++ (strong binding (30 -20 cells per bead)),++ (moderate binding (20 - 10 cells per bead)),–
"RWLKNKKAR [AGM-334, 9mer peptide hit from OBOC screening]",+++ (strong binding (30 -20 cells per bead)),++ (moderate binding (20 - 10 cells per bead)),–
"RHGAMVYLK (PEG12 after the C-terminal Lys of each RHGAMVYLK arm (RHGAMVYLK-PEG12-OH), joined to a trilysine core, arm of the dendrimer; picked from a one-bead-one-compound library on MDA-MB-231 cells; The core is not written as a chain; also called tetrameric AGM-330; source: synthetic peptide (AnyGen, solid-phase peptide synthesis)) [AGM-330 (tetrameric multiple-antigen-peptide form)]",–,–,Kd [3]: 57.7 ± 12 nM
